Calls of active or inactive are those of the source. No rule for the calls is given here.
target: Replicase polyprotein 1ab (Severe acute respiratory syndrome coronavirus) (UniProt P0C6X7); experiment: SARS 3CLpro cleavage inhibition IC50 – biochemical, quenched FRET, dose response (AID 1890); settings: purified 3CLpro, quenched FRET peptide cleavage

| SMILES | IC50 |
| --- | --- |
| O=C(c1cc(=O)[nH]c2ccccc12)N1CCN(c2ccccc2)CC1 | 9.95 µM |
| O=C1C(=O)N(C/C=C/c2ccccc2)c2ccccc21 | inactive |
| CC(=O)NC1C(=O)N(CCN2CCOCC2)c2ccc(Br)cc21 (stereo unspecified) | 7.58 µM |
| O=C(OCC(=O)N1c2ccccc2Sc2ccccc21)c1cccnc1 | inactive |
| CC1CCC2C(=O)N(c3cc(Cl)ccc3OC(=O)c3ccco3)C(=O)C2C1 (stereo unspecified) | 5.39 µM |
| Cc1ccc(C2CC(c3cccs3)=NN2C(=O)CCl)cc1 (stereo unspecified) | 4.19 µM |
| O=c1[nH]c(=O)n(-c2ccccc2F)c(O)c1/C=C1\C=Nc2ccccc21 | 9.47 µM |
| CCC(C)(C)NC(=O)C(c1cccn1C)N(C(=O)Cn1nnc2ccccc21)c1ccc(NC(C)=O)cc1 (stereo unspecified) | 6.29 µM |
| Cc1nnc(SC(=O)N2c3ccccc3Sc3ccccc32)s1 | inactive |
| Cc1ccc2[nH]c3c(c2c1)CN(C(=O)CN1c2ccc(F)cc2CCC1C)CC3 (stereo unspecified) | inactive |
| O=C(N/N=C\c1c(O)ccc2ccccc12)c1cncc(Br)c1 | inactive |
| COc1cc2c(cc1OC)C(c1cc(Br)ccc1F)N(C(=O)CCl)CC2 (stereo unspecified) | 9.88 µM |
| CCc1ccc2c(c1)C(NC(C)=O)C(=O)N2CCN1CCOCC1 (stereo unspecified) | 6.56 µM |
| COc1cccc(C(C(=O)NCc2ccco2)N(Cc2ccco2)C(=O)Cn2nnc3ccccc32)c1 (stereo unspecified) | 7.76 µM |
| CC(=O)NC1C(=O)N(CCN2CCOCC2)c2ccc(F)cc21 (stereo unspecified) | 9.1 µM |
| CN(C)S(=O)(=O)c1cccc(NC(=O)CSc2cccc3cccnc23)c1 | inactive |
| Cc1cc(C)c(N(C(=O)Cn2nnc3ccccc32)C(C(=O)NC(C)(C)C)c2ccsc2)c(C)c1 (stereo unspecified) | 2.9 µM |
| Cc1cc(NC(=O)COC(=O)C(Nc2ccc(C(F)(F)F)cc2Cl)C(C)C)no1 (stereo unspecified) | > 59.6 µM (inactive) |
| COc1ccc(C(=O)n2c(SC)nc3cc4c(cc32)OCCO4)cc1 | 1.08 µM |
| O=C(/C=C/c1ccc(Cl)c([N+](=O)[O-])c1)NCc1cccnc1 | inactive |
| Cc1cc(=O)oc2cc(NC(=O)Cc3ccccc3[N+](=O)[O-])ccc12 | > 59.6 µM (inactive) |
| C[C@@]12C(=O)N(c3cccc(Br)c3)C(=O)N1[C@H](c1ccc(Cl)cc1)[C@@H]1C(=O)N(C3CCCCC3)C(=O)[C@@H]12 | > 59.6 µM (inactive) |
| CC(C)C12CN(C(=O)c3ccccc3[N+](=O)[O-])CC(C(C)C)(CN(C(=O)c3ccccc3[N+](=O)[O-])C1)C2=O | inactive |
| O=C(CCl)N(CCc1ccccc1)CCc1ccccc1 | inactive |
| Cc1ccc(-c2cc(NC(=O)c3ccccc3[N+](=O)[O-])n[nH]2)cc1 | inactive |
| O=C(NCc1ccco1)C(c1ccco1)N(C(=O)Cn1nnc2ccccc21)c1ccc2c(c1)CCC2 (stereo unspecified) | inactive |

| SMILES | IC50 |
| --- | --- |
| CC(=O)c1cc(-c2ccccc2)[nH]c1N1CCCC1 | 4.63 µM |
| COc1ccc(N(C(=O)Cn2nnc3ccccc32)C2(C(=O)NC3CCCC3)CCCCC2)cc1 | 7.89 µM |
| COc1ccc(C(C(=O)NCC2CCCO2)N(C(=O)Cn2nnc3ccccc32)c2ccc(NC(C)=O)cc2)cc1 (stereo unspecified) | 9.35 µM |
| NC(=O)CCn1c(C(=O)c2cc(Cl)c(N)c(Cl)c2)c2ccccc2[n+]1[O-] | 9.81 µM |
| O=C(Cc1ccc(Cl)c(Cl)c1)Nc1cccnc1 | inactive |
| O=C(O)c1[nH]c2ccccc2c1C(c1cc(Br)ccc1O)c1c(C(=O)O)[nH]c2ccccc12 | > 59.6 µM (inactive) |
| COc1cccc(C(C(=O)Nc2ccc(F)cc2)N(C(=O)Cn2nnc3ccccc32)C2CC2)c1 (stereo unspecified) | inactive |
| CC(C)c1ccc(N(C(=O)c2ccco2)C(C(=O)NC2CCCC2)c2cccnc2)cc1 (stereo unspecified) | 5.93 µM |
| Cc1cc(C(=O)CCl)c(C)n1-c1cccc([N+](=O)[O-])c1 | 4.59 µM |
| O=C(Oc1ccc(Br)cc1C(=O)/C=C/c1ccccc1F)c1ccco1 | 7.12 µM |
| CCC(C)(C)NC(=O)C(c1ccc(O)cc1)N(C(=O)Cn1nnc2ccccc21)c1ccc(NC(C)=O)cc1 (stereo unspecified) | inactive |
| CC(C)C[C@H](NC(=O)c1nc[nH]c1C(=O)NCc1ccc(CNC(=O)OC(C)(C)C)cc1)C(=O)OC(C)(C)C | > 59.6 µM (inactive) |
| CC1(C)C2CC=C(/C=N/NC(=S)Nc3cccnc3)C1C2 (stereo unspecified) | > 59.6 µM (inactive) |
| O=C(CSc1ccccn1)Nc1nonc1[N+](=O)[O-] | 7.07 µM |
| COc1cccc(C(C(=O)NCC2CCCO2)N(C(=O)Cn2nnc3ccccc32)c2ccc(NC(C)=O)cc2)c1 (stereo unspecified) | inactive |
| Cc1sc(NC(=O)CCl)c(C(=O)c2ccccc2)c1C | inactive |
| O=C(Cn1nnc2ccccc21)c1ccc(Cl)cc1 | 9.91 µM |
| CCCCOc1ccc(C(=O)Oc2cccnc2)cc1 | > 59.6 µM (inactive) |
| COc1cc(/C=N\NC(=O)Cn2nnc3ccccc32)cc(OC)c1OC | 5.18 µM |
| Cc1ccc(C(=O)c2c3ccc(C(F)(F)F)cc3[n+]([O-])n2CCC(N)=O)cc1 | inactive |
| Cc1cccc(N2CCN(C(=O)c3cc(=O)[nH]c4ccccc34)CC2)c1C | 6.66 µM |
| Cc1cc(=O)oc2cc(OC(=O)c3ccco3)ccc12 | 3.34 µM |
| CCN(CC)C(=O)Cn1cc(/C=C2\C(=O)NC(=O)N(c3ccccc3F)C2=O)c2ccccc21 | inactive |
| Cn1cnc2cc(NC(=O)c3ccc(Cl)cc3)ccc21 | inactive |
| COc1ccccc1OCCNC(=O)c1cc(=O)[nH]c2ccccc12 | 3.6 µM |
| O=C(/C=C/c1ccccc1Cl)Nc1cccnc1 | inactive |

| SMILES | IC50 |
| --- | --- |
| O=C(/C=C/c1cccs1)Nc1scc(-c2ccccc2)c1C(=O)O | 5.22 µM |
| NC(=O)CCn1c(C(=O)c2cccc([N+](=O)[O-])c2)c2ccccc2[n+]1[O-] | inactive |
| COc1ccc(C2CC(c3cccs3)=NN2C(=O)CCl)cc1OC (stereo unspecified) | 2.3 µM |
| NC(=O)CCn1c(C(=O)c2ccc(Cl)cc2)c2ccccc2[n+]1[O-] | 4.88 µM |
| O=C(Oc1cccnc1)c1ccc(Cl)cc1 | 6.31 µM |
| O=C(Oc1ccc(Cl)cc1N1C(=O)CCC1=O)c1ccco1 | inactive |
| Cc1cc(C)c(C)c(S(=O)(=O)N2CCN(C(=O)c3cc(=O)[nH]c4ccccc34)CC2)c1C | 4.83 µM |
| Cc1ccc(C(=O)O)cc1NC(=S)NC(=O)c1ccc(COc2ccccc2)cc1 | > 59.6 µM (inactive) |
| COC(=O)c1ccc(OC(=O)CN2C(=O)c3ccccc3C2=O)cc1 | > 59.6 µM (inactive) |
| O=C(c1cc(=O)[nH]c2ccccc12)N1CCN(c2cccc(C(F)(F)F)c2)CC1 | 5.1 µM |
| CCc1cc(=O)oc2cc(OC(=O)c3ccco3)ccc12 | 2.96 µM |
| CCc1nc(N2CCN(C(=O)CCl)CC2)c2c3c(sc2n1)CC(C)CC3 (stereo unspecified) | 4.23 µM |
| Cc1ccc(C(=O)n2cnc3ccccc32)cc1C | inactive |
| CCC(C)c1ccc(N(C(=O)c2ccco2)C(C(=O)NC2CCCC2)c2cccnc2)cc1 (stereo unspecified) | 2.23 µM |
| O=C(O)c1ccc2ncsc2c1 | inactive |
| CCn1nc(-c2ccccc2)nc2c(=O)n(C)c(=O)nc1-2 | > 59.6 µM (inactive) |
| O=C(O)COc1ccc(Br)cc1C(c1c(C(=O)O)[nH]c2ccccc12)c1c(C(=O)O)[nH]c2ccccc12 | > 59.6 µM (inactive) |
| Cc1cc(C)n(C(=O)c2ccc(C)c(Br)c2)n1 | inactive |
| Cc1cc(NC(=O)COn2nnc3ccc(S(C)(=O)=O)cc32)ccc1Br | inactive |
| Cc1cccc2c1N(CCOc1ccccc1)C(=O)C2=O | inactive |
| COc1ccccc1/C=C/C(=O)c1cc(Br)ccc1OC(=O)c1ccco1 | 8.94 µM |
| CC(C)c1ccc(N(C(=O)c2csnn2)C(C(=O)NC2CCCC2)c2cccnc2)cc1 (stereo unspecified) | inactive |
| O=C1NC(=O)N(c2ccccc2F)C(=O)/C1=C/c1cn(CC(=O)N2CCOCC2)c2ccccc12 | inactive |
| O=C1C(=O)N(CCCc2ccccc2)c2ccccc21 | inactive |
| COc1ccc(C(=O)Oc2cccnc2)cc1 | > 59.6 µM (inactive) |
| O=C1C(=O)N(CC2COc3ccccc3O2)c2ccccc21 (stereo unspecified) | inactive |

| SMILES | IC50 |
| --- | --- |
| Cn1nc(-c2ccc(Cl)cc2)nc2c(=O)n(C)c(=O)nc1-2 | > 19.9 µM (inactive) |
| O=C(Nc1ccccc1)NN(C(=O)CCl)c1ccccc1 | 9.64 µM |
| CC(=O)n1cc(N(C(=O)CCl)c2ccc([N+](=O)[O-])cc2)c2ccccc21 | inactive |
| O=C(Cn1nnc2ccccc21)c1ccc(Br)cc1 | 4.01 µM |
| Cc1ccc(C(=O)Oc2ccc3c(c2)ncn3C)cc1 | inactive |
| O=C(/C=C/c1c(F)cccc1Cl)Nc1cccnc1 | inactive |
| N#CCC(=O)N/N=C/c1c(-c2ccccc2)n(-c2ccccc2)c2ccccc12 | > 59.6 µM (inactive) |
| COc1ccc(C2C(O)C(c3c[nH]c4ccccc34)=NN2C(=O)CCl)cc1 (stereo unspecified) | 3.58 µM |
| CC(=O)Nc1ccc(N(C(=O)Cn2nnc3ccccc32)C(C(=O)NC2CCCC2)c2ccc(O)c(O)c2)cc1 (stereo unspecified) | inactive |
| CCOc1ccc2c(c1)C(=O)C(=O)N2CC1COc2ccccc2O1 (stereo unspecified) | 4.29 µM |
| Cc1ccc(C2=NN(C(=O)CCl)C(c3ccco3)C2)o1 (stereo unspecified) | 5.2 µM |
| Nc1ncc(Br)cc1S(=O)(=O)Nc1cc(C(F)(F)F)cc(C(F)(F)F)c1 | > 59.6 µM (inactive) |
| O=Cc1cn(Cc2ccccc2)nc1-c1cccnc1 | 7.21 µM |
| CC(=O)c1c(OC(=O)c2ccco2)c2ccccc2n1C | inactive |
| COc1cc(C2CC(c3cccs3)=NN2C(=O)CCl)ccc1OC(F)F (stereo unspecified) | 2.8 µM |
| Cc1ccc(/C=C/C(=O)c2cc(Br)ccc2OC(=O)c2ccco2)cc1 | inactive |
| CCc1cccc(CC)c1N(COC)C(=O)Cn1nnc2ccccc21 | inactive |
| COc1ccc2c(c1)C(=O)C(=O)N2CC1COc2ccccc2O1 (stereo unspecified) | 9.74 µM |
| COc1ccc(N(Cc2cc(=O)[nH]c3ccccc23)C(=O)CCl)cc1 | inactive |
| COc1ccc2cc(C3(C)NC(=O)N(CC(=O)NCc4ccco4)C3=O)ccc2c1 (stereo unspecified) | inactive |
| Cc1ccc(C(=O)c2c3ccccc3[n+]([O-])n2CCC(N)=O)cc1 | 9.36 µM |
| O=C(Nc1ccc(OCC(F)(F)C(F)F)c(C(F)(F)F)c1)c1ccccc1O | > 59.6 µM (inactive) |
| COc1cccc(/C=N/NC(=S)Nc2cccnc2)c1 | inactive |
